Data set [1] can be described thus: Solubility of dicarboxylic acid agents in various solvents. Format: physicochemical. To be noted: 183° F. (84° C.). The text has this:
(§1) Two different dicarboxylic particles were used in the Examples herein. […] LCA141 is dodecanedioic acid (DDDA) (Agent B in U.S. Pat. No. 6,994,166), also from INVISTA.

Data set [2] can be described thus: Water solubility of dicarboxylic acid agents. It counts as physicochemical.
Source text: as §1

`O=C(O)CCCCCCCCCCC(=O)O` [LCA141, dodecanedioic acid]: the “Solubility, %” value is 6.99 (183° F. (84° C.)) % in data set [1] (Blend C (50:50 v/v isopropanol and oxyalkylated alcohol mixture)); 5.89 (183° F. (84° C.)) % in data set [1] (Ethylene glycol monobutyl ether (EGMBE)); >9.73 (183° F. (84° C.)) % in data set [1] (Isopropanol). Further, the Water solubility entry is “Very low (70° F. (21° C.))” in data set [2] (70° F. (21° C.)), 0.012% (140° F. (60° C.)) in data set [2] (140° F. (60° C.)), 0.01% (176° F. (80° C.)) in data set [2] (176° F. (80° C.)) and 0.04% (212° F. (100° C.)) in data set [2] (212° F. (100° C.)).

The values above are taken from patent publication US8653012B2, “Mutual solvent-soluble and/or alcohol blends-soluble particles for viscoelastic surfactant fluids” (Baker Hughes Incorporated, priority 2008, dated 2014).
